Measurements published in article PMC6430017, “Structural and chemical insights into the covalent-allosteric inhibition of the protein kinase Akt” (Chemical Science, 2019).

Assays:
Assay in all cases: SelectScreen Z'LYTE kinase profiling
Type in all cases: biochemical
Settings in all cases: ATP at apparent KM
STK4 (MST1) = target: T1, STK4 (MST1) (Homo sapiens, UniProt Q13043)
T1 sequence (Q13043 1-487): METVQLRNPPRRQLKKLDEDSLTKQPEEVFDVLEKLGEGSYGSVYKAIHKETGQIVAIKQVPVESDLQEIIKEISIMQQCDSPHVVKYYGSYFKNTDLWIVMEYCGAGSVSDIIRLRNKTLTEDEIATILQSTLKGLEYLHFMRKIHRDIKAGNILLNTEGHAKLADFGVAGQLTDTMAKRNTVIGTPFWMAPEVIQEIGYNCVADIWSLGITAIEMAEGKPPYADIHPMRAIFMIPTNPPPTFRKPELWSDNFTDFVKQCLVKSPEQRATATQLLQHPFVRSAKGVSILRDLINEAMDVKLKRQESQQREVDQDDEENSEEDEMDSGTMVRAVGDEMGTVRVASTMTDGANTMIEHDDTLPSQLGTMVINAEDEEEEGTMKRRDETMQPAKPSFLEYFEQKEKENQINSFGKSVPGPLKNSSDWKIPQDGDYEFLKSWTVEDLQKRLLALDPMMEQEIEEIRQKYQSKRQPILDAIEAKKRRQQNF

FLT3 = target: T2, FLT3 (Homo sapiens, UniProt P36888)
T2 sequence (P36888 27-993): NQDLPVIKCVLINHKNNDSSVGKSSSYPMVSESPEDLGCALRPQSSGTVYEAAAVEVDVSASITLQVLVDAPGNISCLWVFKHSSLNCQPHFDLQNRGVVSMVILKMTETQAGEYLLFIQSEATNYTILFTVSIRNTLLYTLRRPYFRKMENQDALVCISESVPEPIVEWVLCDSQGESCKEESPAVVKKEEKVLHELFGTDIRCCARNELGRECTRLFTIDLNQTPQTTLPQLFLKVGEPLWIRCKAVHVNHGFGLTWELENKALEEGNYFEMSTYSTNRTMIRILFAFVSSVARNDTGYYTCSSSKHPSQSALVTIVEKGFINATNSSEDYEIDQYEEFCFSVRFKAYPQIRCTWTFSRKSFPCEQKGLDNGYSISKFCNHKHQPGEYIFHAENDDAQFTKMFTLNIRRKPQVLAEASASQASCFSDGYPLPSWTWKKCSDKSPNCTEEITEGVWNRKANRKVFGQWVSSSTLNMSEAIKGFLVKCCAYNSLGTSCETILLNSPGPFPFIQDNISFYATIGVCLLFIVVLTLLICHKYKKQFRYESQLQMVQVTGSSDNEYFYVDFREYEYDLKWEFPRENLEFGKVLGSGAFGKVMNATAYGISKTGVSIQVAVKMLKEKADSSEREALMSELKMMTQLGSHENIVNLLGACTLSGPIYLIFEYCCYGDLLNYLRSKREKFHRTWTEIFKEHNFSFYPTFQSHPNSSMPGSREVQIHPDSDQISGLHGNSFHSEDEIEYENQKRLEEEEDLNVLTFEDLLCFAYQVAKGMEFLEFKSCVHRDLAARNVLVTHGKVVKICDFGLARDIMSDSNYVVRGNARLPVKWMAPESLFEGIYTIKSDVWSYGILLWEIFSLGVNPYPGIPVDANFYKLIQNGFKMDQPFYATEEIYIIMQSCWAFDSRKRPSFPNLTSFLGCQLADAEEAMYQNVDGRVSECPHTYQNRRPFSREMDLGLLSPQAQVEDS
Experimental: (§1) protein kinases at a compound concentration of 1 µM. Measurements were performed in duplicates
(§2) and at the particular apparent ATP KM of each individual kinase employing the activity based Z’LYTE®
(§3) kinase assay of the SelectScreen® Kinase Profiling Services (ThermoFisher Scientific).
(§4) kinases at a compound concentration of 1 µM. Measurements were performed in duplicates and at
(§5) the particular apparent ATP KM of each individual kinase employing the activity based Z’LYTE® kinase
(§6) assay of the SelectScreen® Kinase Profiling Services (ThermoFisher Scientific).

CDK2/cyclin A = CDK2/cyclin A (Homo sapiens, UniProt P24941)
Experimental: as §1, §2, §3, §4, §5, §6

AURKB (Aurora B) = AURKB (Aurora B) (Homo sapiens, UniProt Q96GD4)
Sequence of AURKB (Aurora B) (Q96GD4 whole entry): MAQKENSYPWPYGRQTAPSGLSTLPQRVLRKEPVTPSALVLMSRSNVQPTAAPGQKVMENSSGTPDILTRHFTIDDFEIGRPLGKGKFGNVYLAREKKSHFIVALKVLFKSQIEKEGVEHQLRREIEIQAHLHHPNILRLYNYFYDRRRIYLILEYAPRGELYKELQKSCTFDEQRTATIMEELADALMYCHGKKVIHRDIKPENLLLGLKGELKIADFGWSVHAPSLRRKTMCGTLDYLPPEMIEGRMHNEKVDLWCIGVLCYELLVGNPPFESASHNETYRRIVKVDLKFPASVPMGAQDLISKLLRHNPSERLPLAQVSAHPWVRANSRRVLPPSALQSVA
Experimental: as §1, §2, §3, §4, §5, §6

MAP4K5 (KHS1) = MAP4K5 (KHS1) (Homo sapiens, UniProt Q9Y4K4)
Sequence of MAP4K5 (KHS1) (Q9Y4K4 whole entry): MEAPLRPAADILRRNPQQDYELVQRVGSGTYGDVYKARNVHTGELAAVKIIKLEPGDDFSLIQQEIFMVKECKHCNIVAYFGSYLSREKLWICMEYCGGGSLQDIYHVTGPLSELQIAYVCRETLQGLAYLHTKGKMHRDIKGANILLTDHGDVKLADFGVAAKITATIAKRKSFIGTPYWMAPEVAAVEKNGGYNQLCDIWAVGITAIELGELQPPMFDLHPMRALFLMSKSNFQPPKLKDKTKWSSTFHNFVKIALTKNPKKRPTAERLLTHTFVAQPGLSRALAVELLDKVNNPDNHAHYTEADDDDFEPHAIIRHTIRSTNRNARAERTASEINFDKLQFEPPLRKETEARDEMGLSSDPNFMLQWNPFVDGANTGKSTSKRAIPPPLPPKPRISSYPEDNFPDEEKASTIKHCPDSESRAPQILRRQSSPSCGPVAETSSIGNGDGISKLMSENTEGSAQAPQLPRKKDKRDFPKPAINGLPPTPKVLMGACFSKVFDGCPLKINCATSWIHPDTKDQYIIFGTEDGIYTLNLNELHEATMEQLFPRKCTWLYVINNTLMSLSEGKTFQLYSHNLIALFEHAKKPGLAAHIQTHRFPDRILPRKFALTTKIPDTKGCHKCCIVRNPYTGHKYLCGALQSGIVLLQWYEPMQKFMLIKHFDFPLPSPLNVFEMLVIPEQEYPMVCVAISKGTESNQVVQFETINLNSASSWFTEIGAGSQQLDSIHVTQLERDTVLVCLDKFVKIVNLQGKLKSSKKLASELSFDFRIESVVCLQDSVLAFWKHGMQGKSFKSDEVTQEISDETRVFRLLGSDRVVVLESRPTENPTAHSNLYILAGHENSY
Experimental: as §1, §2, §3, §4, §5, §6

ACVR1B (ALK4) = target: T3, ACVR1B (ALK4) (Homo sapiens, UniProt P36896)
T3 sequence (P36896 24-505): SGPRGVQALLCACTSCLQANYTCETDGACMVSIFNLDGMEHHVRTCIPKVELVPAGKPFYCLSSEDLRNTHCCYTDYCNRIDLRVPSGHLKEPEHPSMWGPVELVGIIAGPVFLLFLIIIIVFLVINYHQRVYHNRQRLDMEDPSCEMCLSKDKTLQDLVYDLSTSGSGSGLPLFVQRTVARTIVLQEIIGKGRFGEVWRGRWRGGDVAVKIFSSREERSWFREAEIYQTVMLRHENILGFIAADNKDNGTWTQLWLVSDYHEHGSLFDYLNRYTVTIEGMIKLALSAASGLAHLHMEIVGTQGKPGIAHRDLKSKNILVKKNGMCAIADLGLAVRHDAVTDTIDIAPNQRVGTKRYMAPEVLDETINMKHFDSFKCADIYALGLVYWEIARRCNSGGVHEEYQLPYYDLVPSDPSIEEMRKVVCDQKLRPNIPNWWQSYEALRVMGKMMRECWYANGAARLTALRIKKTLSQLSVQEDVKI
Experimental: as §1, §2, §3, §4, §5, §6

SRC = SRC (Homo sapiens, UniProt P12931)
Sequence of SRC (P12931 whole entry): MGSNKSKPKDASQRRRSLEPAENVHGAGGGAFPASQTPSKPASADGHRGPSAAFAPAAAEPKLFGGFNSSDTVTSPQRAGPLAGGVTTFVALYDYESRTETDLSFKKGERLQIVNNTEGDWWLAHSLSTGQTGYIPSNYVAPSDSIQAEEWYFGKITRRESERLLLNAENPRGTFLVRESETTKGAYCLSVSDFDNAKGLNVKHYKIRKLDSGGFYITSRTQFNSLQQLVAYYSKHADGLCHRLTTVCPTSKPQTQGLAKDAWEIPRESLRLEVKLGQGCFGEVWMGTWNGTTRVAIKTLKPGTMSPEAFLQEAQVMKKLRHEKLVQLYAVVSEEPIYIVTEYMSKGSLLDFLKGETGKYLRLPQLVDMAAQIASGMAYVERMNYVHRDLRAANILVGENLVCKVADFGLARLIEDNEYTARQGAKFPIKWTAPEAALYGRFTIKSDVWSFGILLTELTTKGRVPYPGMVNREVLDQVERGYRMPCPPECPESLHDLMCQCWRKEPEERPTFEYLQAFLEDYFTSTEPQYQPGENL
Experimental: as §1, §2, §3, §4, §5, §6

PAK1 = PAK1 (Homo sapiens, UniProt Q13153)
Sequence of PAK1 (Q13153 whole entry): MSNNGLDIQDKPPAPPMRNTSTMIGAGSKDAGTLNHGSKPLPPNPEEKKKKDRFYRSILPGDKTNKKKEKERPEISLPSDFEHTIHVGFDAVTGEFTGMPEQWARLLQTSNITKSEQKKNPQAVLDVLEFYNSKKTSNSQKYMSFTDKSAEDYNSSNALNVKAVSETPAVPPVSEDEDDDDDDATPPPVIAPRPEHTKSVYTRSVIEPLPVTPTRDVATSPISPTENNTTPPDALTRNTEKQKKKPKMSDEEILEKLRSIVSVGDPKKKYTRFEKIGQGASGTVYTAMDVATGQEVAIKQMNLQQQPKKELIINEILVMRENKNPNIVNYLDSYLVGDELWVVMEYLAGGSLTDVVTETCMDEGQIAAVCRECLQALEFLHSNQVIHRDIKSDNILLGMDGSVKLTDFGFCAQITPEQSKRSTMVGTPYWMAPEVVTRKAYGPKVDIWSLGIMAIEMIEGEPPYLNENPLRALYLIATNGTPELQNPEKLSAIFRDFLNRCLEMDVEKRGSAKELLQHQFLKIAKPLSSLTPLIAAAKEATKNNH
Experimental: as §1, §2, §3, §4, §5, §6

ROCK2 = ROCK2 (Homo sapiens, UniProt O75116)
Sequence of ROCK2 (O75116 whole entry): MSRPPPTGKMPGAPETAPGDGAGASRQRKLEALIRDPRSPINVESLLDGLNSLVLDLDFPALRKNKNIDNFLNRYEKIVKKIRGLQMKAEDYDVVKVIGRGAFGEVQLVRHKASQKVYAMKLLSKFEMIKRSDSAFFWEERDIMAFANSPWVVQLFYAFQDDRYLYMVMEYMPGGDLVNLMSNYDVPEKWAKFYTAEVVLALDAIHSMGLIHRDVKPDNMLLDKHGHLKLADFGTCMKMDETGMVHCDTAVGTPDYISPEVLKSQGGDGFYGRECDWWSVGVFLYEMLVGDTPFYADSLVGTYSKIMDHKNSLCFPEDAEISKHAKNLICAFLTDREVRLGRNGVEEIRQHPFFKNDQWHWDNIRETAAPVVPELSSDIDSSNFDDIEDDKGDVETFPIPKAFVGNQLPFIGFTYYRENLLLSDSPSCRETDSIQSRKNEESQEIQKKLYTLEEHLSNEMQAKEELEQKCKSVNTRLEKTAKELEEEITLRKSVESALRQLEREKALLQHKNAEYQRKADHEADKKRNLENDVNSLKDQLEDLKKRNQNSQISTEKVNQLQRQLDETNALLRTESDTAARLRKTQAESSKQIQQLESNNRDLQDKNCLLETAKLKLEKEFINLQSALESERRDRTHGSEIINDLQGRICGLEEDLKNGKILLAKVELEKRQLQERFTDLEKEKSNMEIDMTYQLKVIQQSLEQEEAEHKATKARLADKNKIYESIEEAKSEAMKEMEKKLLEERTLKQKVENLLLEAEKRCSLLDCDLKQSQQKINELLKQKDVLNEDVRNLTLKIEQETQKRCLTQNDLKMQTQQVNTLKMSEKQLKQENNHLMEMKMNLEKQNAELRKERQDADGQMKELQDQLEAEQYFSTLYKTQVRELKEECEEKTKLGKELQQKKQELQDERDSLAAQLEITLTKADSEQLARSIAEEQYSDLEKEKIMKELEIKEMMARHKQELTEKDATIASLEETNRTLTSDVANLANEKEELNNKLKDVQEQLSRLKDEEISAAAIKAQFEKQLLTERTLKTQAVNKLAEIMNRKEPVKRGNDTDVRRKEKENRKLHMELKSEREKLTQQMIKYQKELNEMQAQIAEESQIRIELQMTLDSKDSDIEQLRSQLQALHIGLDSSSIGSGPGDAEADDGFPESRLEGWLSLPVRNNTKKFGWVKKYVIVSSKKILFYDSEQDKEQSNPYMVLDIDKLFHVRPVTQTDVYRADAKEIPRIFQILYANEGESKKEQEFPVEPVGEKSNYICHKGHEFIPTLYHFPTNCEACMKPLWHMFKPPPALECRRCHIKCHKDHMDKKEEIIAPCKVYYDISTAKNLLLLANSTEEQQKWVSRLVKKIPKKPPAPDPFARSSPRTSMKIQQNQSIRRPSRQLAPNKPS
Experimental: as §1, §2, §3, §4, §5, §6

GRK7 = target: T4, GRK7 (Homo sapiens, UniProt Q8WTQ7)
T4 sequence (Q8WTQ7 1-553): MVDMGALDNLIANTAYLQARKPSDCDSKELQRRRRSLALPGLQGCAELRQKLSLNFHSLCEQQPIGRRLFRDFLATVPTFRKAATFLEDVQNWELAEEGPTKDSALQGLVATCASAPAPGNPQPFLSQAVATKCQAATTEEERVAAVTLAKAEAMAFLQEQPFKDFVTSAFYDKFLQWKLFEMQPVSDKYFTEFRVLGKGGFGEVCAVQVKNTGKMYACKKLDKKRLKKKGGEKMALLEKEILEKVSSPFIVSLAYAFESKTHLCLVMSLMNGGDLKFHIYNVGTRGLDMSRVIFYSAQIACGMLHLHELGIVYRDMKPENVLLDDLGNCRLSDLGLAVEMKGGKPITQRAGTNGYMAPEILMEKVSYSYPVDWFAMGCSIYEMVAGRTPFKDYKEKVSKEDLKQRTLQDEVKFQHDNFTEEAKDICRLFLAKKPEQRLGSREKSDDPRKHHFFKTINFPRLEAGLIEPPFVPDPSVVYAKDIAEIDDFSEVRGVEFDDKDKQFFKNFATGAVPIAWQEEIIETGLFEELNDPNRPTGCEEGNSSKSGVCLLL
Experimental: as §1, §2, §3, §4, §5, §6

## C=CC(=O)Nc1cccc(C(=O)NC2CCN(Cc3ccc(-c4nc5cc[nH]c(=O)c5cc4-c4ccccc4)cc3)CC2)c1 [30b]
STK4 (MST1)
  inhibition at 1 µM: 7%
FLT3
  inhibition at 1 µM: 14%
CDK2/cyclin A
  inhibition at 1 µM: 11%
AURKB (Aurora B)
  inhibition at 1 µM: 2%
MAP4K5 (KHS1)
  inhibition at 1 µM: 18%
ACVR1B (ALK4)
  inhibition at 1 µM: 0%
SRC
  inhibition at 1 µM: 17%
PAK1
  inhibition at 1 µM: 4%
ROCK2
  inhibition at 1 µM: 21%
GRK7
  inhibition at 1 µM: 5%

## C=CC(=O)Nc1cc(NC(=O)NC2CCN(Cc3ccc(-c4nc5cc[nH]c(=O)c5cc4-c4ccccc4)cc3)CC2)ccc1Cl [compound 27]
STK4 (MST1)
  inhibition at 1 µM: 14%
FLT3
  inhibition at 1 µM: 14%
CDK2/cyclin A
  inhibition at 1 µM: 6%
AURKB (Aurora B)
  inhibition at 1 µM: 2%
MAP4K5 (KHS1)
  inhibition at 1 µM: 5%
ACVR1B (ALK4)
  inhibition at 1 µM: -8%
SRC
  inhibition at 1 µM: 36%
PAK1
  inhibition at 1 µM: -2%
ROCK2
  inhibition at 1 µM: 31%
GRK7
  inhibition at 1 µM: 5%

## C=CC(=O)Nc1ccc2c(c1)n(C1CCN(Cc3ccc(-c4nc5cc[nH]c(=O)c5cc4-c4ccccc4)cc3)CC1)c(=O)n2C [24b]
STK4 (MST1)
  inhibition at 1 µM: 6%
FLT3
  inhibition at 1 µM: 7%
CDK2/cyclin A
  inhibition at 1 µM: 7%
AURKB (Aurora B)
  inhibition at 1 µM: 0%
MAP4K5 (KHS1)
  inhibition at 1 µM: 3%
ACVR1B (ALK4)
  inhibition at 1 µM: -1%
SRC
  inhibition at 1 µM: 19%
PAK1
  inhibition at 1 µM: 12%
ROCK2
  inhibition at 1 µM: 9%
GRK7
  inhibition at 1 µM: -4%
